Experimental data published in ChEMBL document CHEMBL2062480, “Semi-synthesis and anti-tumor evaluation of novel 25-hydroxyprotopanaxadiol derivatives” (Eur J Med Chem, 2012).

Experiments:
A549 = test: Antiproliferative activity against human A549 cells after 48 hrs by MTT assay; type: functional, cell-based; conditions: A549, 48 h
LoVo = test: Antiproliferative activity against human LoVo cells after 48 hrs by MTT assay; type: functional, cell-based
[1] = Antiproliferative activity against human IOSE-144 cells after 48 hrs by MTT assay; type: cell-based; conditions: IOSE-144, 48 h
MCF7 [2] = test: Antiproliferative activity against human MCF7 cells after 48 hrs by MTT assay; type: functional, cell-based; conditions: for IC50: MCF7, 48 h
MCF7 [3] = test: Antiproliferative activity against human MCF7 cells assessed as cell viability at 30 uM after 48 hrs by MTT assay; type: functional; conditions: MCF7, 48 h, read-out: Activity

| Structure (SMILES) | IC50 (A549) | IC50 (LoVo) | IC50 [1] | IC50 (MCF7 [2]) | viability at 30 µM (MCF7 [3]) | Activity (MCF7 [2]) |
| --- | --- | --- | --- | --- | --- | --- |
| CCCCCCCCCC(=O)O[C@@H]1C[C@@H]2[C@@]3(C)CC[C@H](O)C(C)(C)[C@@H]3CC[C@@]2(C)[C@]2(C)CC[C@H]([C@](C)(O)CCCC(C)(C)O)[C@@H]12 | 29.6 µM | > 50 µM | > 100 µM | 26.2 µM | – | – |
| CC(C)(O)CCC[C@@](C)(O)[C@H]1CC[C@]2(C)[C@@H]1[C@H](O)C[C@@H]1[C@@]3(C)CC[C@H](O)C(C)(C)[C@@H]3CC[C@]12C | 34.2 µM | 45.2 µM | > 100 µM | 48.9 µM | 66.3% | – |
| CCCCCCCCCCCCCC(=O)O[C@@H]1C[C@@H]2[C@@]3(C)CC[C@H](O)C(C)(C)[C@@H]3CC[C@@]2(C)[C@]2(C)CC[C@H]([C@](C)(O)CCCC(C)(C)O)[C@@H]12 | > 100 µM | > 100 µM | > 100 µM | > 100 µM | – | – |
| CCCCCCCCCCCCCCCC(=O)O[C@H]1CC[C@]2(C)[C@H]3C[C@@H](O)[C@@H]4[C@@H]([C@](C)(O)CCCC(C)(C)O)CC[C@@]4(C)[C@]3(C)CC[C@H]2C1(C)C | > 100 µM | > 100 µM | > 100 µM | > 100 µM | – | – |
| CC(=O)O[C@H]1CC[C@]2(C)[C@H]3C[C@@H](OC(C)=O)[C@@H]4[C@@H]([C@](C)(O)CCCC(C)(C)O)CC[C@@]4(C)[C@]3(C)CC[C@H]2C1(C)C | 14.8 µM | 43.4 µM | > 100 µM | 25.3 µM | – | – |
| CCCCCCC(=O)O[C@H]1CC[C@]2(C)[C@H]3C[C@@H](O)[C@@H]4[C@@H]([C@](C)(O)CCCC(C)(C)O)CC[C@@]4(C)[C@]3(C)CC[C@H]2C1(C)C | 16.8 µM | > 50 µM | > 100 µM | 33.7 µM | – | – |
| CC(C)(O)CCC[C@@](C)(O)[C@H]1CC[C@]2(C)[C@@H]1[C@H](O)C[C@@H]1[C@@]3(C)CC[C@H](OC=O)C(C)(C)[C@@H]3CC[C@]12C | 39.2 µM | > 50 µM | > 100 µM | 11.5 µM | – | Dose-dependent effect |
| CCCCCCCCCCCC(=O)O[C@H]1CC[C@]2(C)[C@H]3C[C@@H](O)[C@@H]4[C@@H]([C@](C)(O)CCCC(C)(C)O)CC[C@@]4(C)[C@]3(C)CC[C@H]2C1(C)C | > 100 µM | > 100 µM | > 100 µM | > 100 µM | – | – |
| CCCC(=O)O[C@@H]1C[C@@H]2[C@@]3(C)CC[C@H](O)C(C)(C)[C@@H]3CC[C@@]2(C)[C@]2(C)CC[C@H]([C@](C)(O)CCCC(C)(C)O)[C@@H]12 | 25.5 µM | 38.3 µM | > 100 µM | 32.8 µM | 28.5% | – |
| CC(=O)O[C@@H]1C[C@@H]2[C@@]3(C)CC[C@H](O)C(C)(C)[C@@H]3CC[C@@]2(C)[C@]2(C)CC[C@H]([C@](C)(O)CCCC(C)(C)O)[C@@H]12 | 10.4 µM | 37.5 µM | > 100 µM | 15.1 µM | 13.2% | – |
| CC(=O)O[C@H]1CC[C@]2(C)[C@H]3C[C@@H](O)[C@@H]4[C@@H]([C@](C)(O)CCCC(C)(C)O)CC[C@@]4(C)[C@]3(C)CC[C@H]2C1(C)C | 15.7 µM | > 50 µM | > 100 µM | 15.2 µM | – | Dose-dependent effect |
| CCCCCCCCCCCCCCCCCC(=O)O[C@@H]1C[C@@H]2[C@@]3(C)CC[C@H](O)C(C)(C)[C@@H]3CC[C@@]2(C)[C@]2(C)CC[C@H]([C@](C)(O)CCCC(C)(C)O)[C@@H]12 | > 100 µM | > 100 µM | > 100 µM | > 100 µM | – | – |
| CCCCCC(=O)O[C@H]1CC[C@]2(C)[C@H]3C[C@@H](O)[C@@H]4[C@@H]([C@](C)(O)CCCC(C)(C)O)CC[C@@]4(C)[C@]3(C)CC[C@H]2C1(C)C | 26.2 µM | > 50 µM | > 100 µM | > 50 µM | – | – |
| CCCCCCCCC(=O)O[C@H]1CC[C@]2(C)[C@H]3C[C@@H](O)[C@@H]4[C@@H]([C@](C)(O)CCCC(C)(C)O)CC[C@@]4(C)[C@]3(C)CC[C@H]2C1(C)C | > 50 µM | > 50 µM | > 100 µM | > 50 µM | – | – |
| CCCCCCCCCCCC(=O)O[C@@H]1C[C@@H]2[C@@]3(C)CC[C@H](O)C(C)(C)[C@@H]3CC[C@@]2(C)[C@]2(C)CC[C@H]([C@](C)(O)CCCC(C)(C)O)[C@@H]12 | > 100 µM | > 50 µM | > 100 µM | > 100 µM | – | – |
| CCCCCCCCCCCCCCCCCC(=O)O[C@H]1CC[C@]2(C)[C@H]3C[C@@H](O)[C@@H]4[C@@H]([C@](C)(O)CCCC(C)(C)O)CC[C@@]4(C)[C@]3(C)CC[C@H]2C1(C)C | > 100 µM | > 100 µM | > 100 µM | > 100 µM | – | – |

| Structure (SMILES) | IC50 (A549) | IC50 (LoVo) | IC50 [1] | IC50 (MCF7 [2]) | viability at 30 µM (MCF7 [3]) | Activity (MCF7 [2]) |
| --- | --- | --- | --- | --- | --- | --- |
| CCCCCCC(=O)O[C@@H]1C[C@@H]2[C@@]3(C)CC[C@H](O)C(C)(C)[C@@H]3CC[C@@]2(C)[C@]2(C)CC[C@H]([C@](C)(O)CCCC(C)(C)O)[C@@H]12 | 16.5 µM | 48.1 µM | > 100 µM | 16.3 µM | – | – |
| CCCCC(=O)O[C@H]1CC[C@]2(C)[C@H]3C[C@@H](OC(=O)CCCC)[C@@H]4[C@@H]([C@](C)(O)CCCC(C)(C)O)CC[C@@]4(C)[C@]3(C)CC[C@H]2C1(C)C | 49.9 µM | > 50 µM | > 100 µM | > 50 µM | – | – |
| CCC(=O)O[C@H]1CC[C@]2(C)[C@H]3C[C@@H](O)[C@@H]4[C@@H]([C@](C)(O)CCCC(C)(C)O)CC[C@@]4(C)[C@]3(C)CC[C@H]2C1(C)C | 43.6 µM | > 50 µM | > 100 µM | 12.5 µM | – | Dose-dependent effect |
| CCCC(=O)O[C@H]1CC[C@]2(C)[C@H]3C[C@@H](O)[C@@H]4[C@@H]([C@](C)(O)CCCC(C)(C)O)CC[C@@]4(C)[C@]3(C)CC[C@H]2C1(C)C | 35.5 µM | > 50 µM | > 100 µM | 42.8 µM | – | – |
| CCC(=O)O[C@H]1CC[C@]2(C)[C@H]3C[C@@H](OC(=O)CC)[C@@H]4[C@@H]([C@](C)(O)CCCC(C)(C)O)CC[C@@]4(C)[C@]3(C)CC[C@H]2C1(C)C | 14.9 µM | 45.3 µM | > 100 µM | 20.6 µM | – | – |
| CC(C)(O)CCC[C@@](C)(O)[C@H]1CC[C@]2(C)[C@@H]1[C@H](OC=O)C[C@@H]1[C@@]3(C)CC[C@H](O)C(C)(C)[C@@H]3CC[C@]12C | 15.9 µM | 49.6 µM | > 100 µM | 11.6 µM | 15.1% | – |
| CC(C)(O)CCC[C@@](C)(O)[C@H]1CC[C@]2(C)[C@@H]1[C@H](OC=O)C[C@@H]1[C@@]3(C)CC[C@H](OC=O)C(C)(C)[C@@H]3CC[C@]12C | 12.5 µM | 49.5 µM | > 100 µM | 1.1 µM | 10.6% | – |
| CCCCCCCCCCCCCCCC(=O)O[C@@H]1C[C@@H]2[C@@]3(C)CC[C@H](O)C(C)(C)[C@@H]3CC[C@@]2(C)[C@]2(C)CC[C@H]([C@](C)(O)CCCC(C)(C)O)[C@@H]12 | > 50 µM | > 100 µM | > 100 µM | > 50 µM | – | – |
| CCC(=O)O[C@@H]1C[C@@H]2[C@@]3(C)CC[C@H](O)C(C)(C)[C@@H]3CC[C@@]2(C)[C@]2(C)CC[C@H]([C@](C)(O)CCCC(C)(C)O)[C@@H]12 | 17.7 µM | 40.3 µM | > 100 µM | 10.4 µM | 17.1% | – |
| CCCCCCCCCCCCCC(=O)O[C@H]1CC[C@]2(C)[C@H]3C[C@@H](O)[C@@H]4[C@@H]([C@](C)(O)CCCC(C)(C)O)CC[C@@]4(C)[C@]3(C)CC[C@H]2C1(C)C | > 100 µM | > 100 µM | > 100 µM | > 100 µM | – | – |
| O=c1[nH]cc(F)c(=O)[nH]1 [FLUOROURACIL] | 12.8 µM | 3.3 µM | 25.6 µM | 16.2 µM | 42.5% | – |
| CCCCC(=O)O[C@H]1CC[C@]2(C)[C@H]3C[C@@H](O)[C@@H]4[C@@H]([C@](C)(O)CCCC(C)(C)O)CC[C@@]4(C)[C@]3(C)CC[C@H]2C1(C)C | > 50 µM | > 50 µM | > 100 µM | > 50 µM | – | – |
| CCCCCCCC(=O)O[C@H]1CC[C@]2(C)[C@H]3C[C@@H](O)[C@@H]4[C@@H]([C@](C)(O)CCCC(C)(C)O)CC[C@@]4(C)[C@]3(C)CC[C@H]2C1(C)C | 46.7 µM | > 50 µM | > 100 µM | > 100 µM | – | – |
| CCCCCCCC/C=C\CCCCCCCC(=O)O[C@H]1CC[C@]2(C)[C@H]3C[C@@H](O)[C@@H]4[C@@H]([C@](C)(O)CCCC(C)(C)O)CC[C@@]4(C)[C@]3(C)CC[C@H]2C1(C)C | > 100 µM | > 100 µM | > 100 µM | > 100 µM | – | – |
| CCCCCCCCCC(=O)O[C@H]1CC[C@]2(C)[C@H]3C[C@@H](O)[C@@H]4[C@@H]([C@](C)(O)CCCC(C)(C)O)CC[C@@]4(C)[C@]3(C)CC[C@H]2C1(C)C | > 100 µM | > 50 µM | > 100 µM | > 100 µM | – | – |
| CCCCCCCC/C=C\CCCCCCCC(=O)O[C@@H]1C[C@@H]2[C@@]3(C)CC[C@H](O)C(C)(C)[C@@H]3CC[C@@]2(C)[C@]2(C)CC[C@H]([C@](C)(O)CCCC(C)(C)O)[C@@H]12 | > 100 µM | > 100 µM | > 100 µM | > 100 µM | – | – |
